SMILES strings stand for the structures.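 96-well plates; 48 h exposure; 5 concentrations. Endpoints by linear interpolation between flanking doses. Not reached: highest tested concentration assigned. GI50 = concentration required for 50% inhibition of growth.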 Calls of active or inactive are those of the source. Cut-off read from the data, not from the text of the source: active = GI50 up to about 1.1 µM and inactive = higher.

These results are taken from ChEMBL document CHEMBL1201862, “PubChem BioAssay data set” (2004).

Among the test systems are CAKI-1; HCC 2998; HCT-116; HCT-15; HOP-62; IGROV-1; MOLT-4; NCI-H522; OVCAR-4; OVCAR-5; SF-295; SF-539; SK-OV-3; SNB-75; UO-31; K562; KM12; OVCAR-3; SK-MEL-28; TK-10.
Experiment in all cases: DTP human tumour cell line panel, 48 h

The GI50 is the concentration at which growth is held to half of that of the control. Take `CC(Cc1ccccc1)NC1=NCCO1` (centres undefined): the GI50 is > 100 µM (inactive) in the assay with CAKI-1; 27.6 µM (inactive) with HCC 2998; 18 µM (inactive) with HCT-116; 96.4 µM with HCT-15; 84.1 µM (inactive) in the assay on HOP-62; 36 µM (inactive) with IGROV-1. The GI50 in the assay with MOLT-4 is 47 µM (inactive); with NCI-H522, 59.6 µM (inactive); in the assay on OVCAR-4 it was 36.2 µM (inactive); in the assay on OVCAR-5, > 100 µM (inactive); in the assay with SF-295, > 100 µM (inactive); in the assay with SF-539 it was 14 µM (inactive). For the same compound, the values for the GI50 in the assay with SK-OV-3, with SNB-75 and with UO-31 were > 100 µM (inactive), 43.3 µM (inactive) and 23.6 µM (inactive), respectively.
With `CCOC(=O)c1c(Cl)nc2ccccc2c1N=[N+]=[N-]`, the GI50 with CAKI-1 is 20.2 µM (inactive); with HCC 2998, 80.4 µM (inactive); in the assay with HCT-116, 20.7 µM (inactive); with HCT-15, 18.6 µM; with HOP-62, 49.3 µM (inactive); with IGROV-1, 22 µM (inactive). Moreover, the GI50 in the assay with K562 is 69.5 µM (inactive); with KM12, 16.2 µM (inactive); in the assay on MOLT-4, 24.2 µM (inactive); with NCI-H522, 16.7 µM (inactive); in the assay on OVCAR-3 it was 19.5 µM (inactive); with OVCAR-4 it was 16.9 µM (inactive). Moreover, the GI50 with OVCAR-5 is 19.3 µM (inactive); with SF-295 it was 23.9 µM (inactive); in the assay on SF-539 it was 18.6 µM (inactive); in the assay with SK-MEL-28 it was 52.4 µM (inactive); in the assay with SK-OV-3, 70.5 µM (inactive); in the assay on TK-10, 31.9 µM (inactive). In the assay with UO-31, the GI50 was 18.7 µM (inactive).
For the compound `CSc1nc2c(nc(N)n2C2OCC(O)C(O)C2O)c(=O)[nH]1` (centres undefined), the GI50 with CAKI-1, with HCC 2998, in the assay with HCT-116, in the assay on HOP-62, in the assay on IGROV-1 and in the assay on K562 was > 100 µM (inactive) in each case. Besides, the GI50 with KM12, in the assay on MOLT-4, with NCI-H522, with OVCAR-3, in the assay on OVCAR-4 and with SF-295 was > 100 µM (inactive) in each case. For the same compound, the GI50 in the assay with SF-539, in the assay on SK-MEL-28, in the assay with SK-OV-3, with SNB-75, with TK-10 and in the assay with UO-31 was > 100 µM (inactive) in each case.
As for `C=C=C(Sc1ccccc1)C(C)(C)OC(C)=O`, the GI50 in the assay on CAKI-1 is 34.9 µM (inactive); in the assay with HCC 2998 it was 20.9 µM (inactive); with HCT-116, 13.9 µM (inactive); in the assay on HCT-15 it was 20.6 µM; with IGROV-1, 17.6 µM (inactive); in the assay with K562, 22.1 µM (inactive). Besides, the GI50 in the assay with KM12 is 16 µM (inactive); in the assay on MOLT-4, 34.5 µM (inactive); in the assay on NCI-H522 it was 15.6 µM (inactive); with OVCAR-3, 16.3 µM (inactive); with OVCAR-4, 31.2 µM (inactive); with OVCAR-5, 20.3 µM (inactive). Moreover, the GI50 in the assay with SF-295 is 18.2 µM (inactive); with SF-539 it was 16.1 µM (inactive); in the assay on SK-MEL-28, 17.1 µM (inactive); in the assay with SK-OV-3, 25.1 µM (inactive); in the assay on SNB-75, 21.2 µM (inactive); in the assay with TK-10 it was 32.5 µM (inactive). Moreover, the GI50 with UO-31 is 14.2 µM (inactive).
In the case of `C1=CCN(c2ccccc2)CC1`, the GI50 with HCC 2998 was 49.9 µM (inactive); in the assay on HCT-116, 29.6 µM (inactive); in the assay with HCT-15, 14.8 µM; in the assay on IGROV-1, 29.9 µM (inactive); in the assay on K562, 30.1 µM (inactive); in the assay with KM12 it was 64.9 µM (inactive). The GI50 was 5.69 µM (inactive) in the assay with MOLT-4; 16.3 µM (inactive) in the assay on NCI-H522; 25.4 µM (inactive) in the assay on OVCAR-3; > 100 µM (inactive) in the assay with OVCAR-5; > 100 µM (inactive) with SF-295; 43.5 µM (inactive) in the assay with SF-539. Further, the GI50 was 24.8 µM (inactive) in the assay with SK-MEL-28; > 100 µM (inactive) with SK-OV-3; 33.1 µM (inactive) in the assay with SNB-75; 40 µM (inactive) with TK-10; > 100 µM (inactive) with UO-31.
On to `C/C(C[n+]1ccccc1)=N\N=C(N)N`, for which the GI50 in the assay on CAKI-1 is > 100 µM (inactive); in the assay on HCC 2998 it was > 100 µM (inactive); in the assay with HCT-116, > 100 µM (inactive); with HCT-15, greater than 100 µM; in the assay with HOP-62, > 100 µM (inactive); in the assay on IGROV-1, > 100 µM (inactive). Also, the GI50 in the assay with K562, in the assay on KM12, in the assay on MOLT-4, in the assay with NCI-H522, in the assay on OVCAR-3 and in the assay with OVCAR-4 was > 100 µM (inactive) each time. Further, the GI50 with OVCAR-5, in the assay on SF-295, with SK-MEL-28, in the assay with SK-OV-3, in the assay with SNB-75 and with TK-10 was > 100 µM (inactive) each time. In addition, in the assay with UO-31, the GI50 was > 100 µM (inactive).
Take `O=C(O)/C(O)=C1/C=C(c2ccccc2)c2ccccc21`: the GI50 in the assay with CAKI-1 was 31.4 µM (inactive); with HCC 2998, 21.5 µM (inactive); in the assay with HCT-116, 19.6 µM (inactive); in the assay on HCT-15 it was 22.2 µM; in the assay with HOP-62 it was 25.4 µM (inactive); with IGROV-1, 22.1 µM (inactive). In addition, the GI50 in the assay on K562 is 26.1 µM (inactive); in the assay on KM12, 17.8 µM (inactive); in the assay with MOLT-4, 14.8 µM (inactive); in the assay with NCI-H522 it was 16.9 µM (inactive); in the assay with OVCAR-4 it was 26.1 µM (inactive); in the assay with OVCAR-5 it was 23.6 µM (inactive). Moreover, the GI50 with SF-295 is 18.8 µM (inactive); with SF-539, 29.9 µM (inactive); in the assay with SK-OV-3, 30.4 µM (inactive); in the assay on SNB-75, 22 µM (inactive); in the assay on TK-10 it was 31.6 µM (inactive); in the assay on UO-31 it was 19.3 µM (inactive).
As to `NC(CP(=O)(O)O)C(=O)O` (centres undefined), the GI50 was > 100 µM (inactive) in the assay with CAKI-1; > 100 µM (inactive) in the assay on HCC 2998; > 100 µM (inactive) in the assay with HCT-116; greater than 100 µM in the assay with HCT-15; > 100 µM (inactive) in the assay with HOP-62; > 100 µM (inactive) with IGROV-1. Further, the GI50 in the assay with K562, in the assay with KM12, in the assay with MOLT-4, in the assay on NCI-H522, in the assay on OVCAR-3 and in the assay on OVCAR-4 was > 100 µM (inactive) each time. The GI50 in the assay with OVCAR-5, in the assay with SF-295, in the assay with SK-MEL-28, in the assay with SK-OV-3, with SNB-75 and in the assay on TK-10 was > 100 µM (inactive) in each case. Moreover, the GI50 with UO-31 was > 100 µM (inactive).
